Laboratory results published in patent US6344462B1, “Heterocyclic compounds as bradykinin antagonists” (Fujisawa Pharmaceutical Co., Ltd., priority 1995, dated 2002).
Structures can show the parent of a compound that is named as a salt.

Columns and labels:
Bradykinin receptor = molecular target: T1, Bradykinin receptor (Cavia porcellus, UniProt O70526); test: 3H-Bradykinin receptor binding (crude guinea pig ileum membrane); conditions: crude ileum membrane of male Hartly strain guinea pigs; 3H-Bradykinin 0.06 nM; room temperature, 60 minutes; read-out: Inhibition of 3H-Bradykinin binding IC50
T1 construct: from tissue; host or cells: guinea pig ileum, crude membrane preparation
T1 sequence (O70526 1-372): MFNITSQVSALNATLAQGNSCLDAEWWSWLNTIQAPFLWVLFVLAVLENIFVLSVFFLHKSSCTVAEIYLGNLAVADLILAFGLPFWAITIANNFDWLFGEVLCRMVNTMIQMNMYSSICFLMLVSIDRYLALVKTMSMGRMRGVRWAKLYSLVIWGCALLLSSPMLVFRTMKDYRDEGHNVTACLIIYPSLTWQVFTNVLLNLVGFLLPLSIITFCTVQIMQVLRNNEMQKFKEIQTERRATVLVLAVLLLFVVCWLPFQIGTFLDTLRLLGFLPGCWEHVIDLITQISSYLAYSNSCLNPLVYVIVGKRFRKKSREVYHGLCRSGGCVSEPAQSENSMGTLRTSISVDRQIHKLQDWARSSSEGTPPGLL
Procedure: ^3H-Bradykinin receptor binding
(a) Crude ileum membrane preparation
Male Hartly strain guinea pigs were sacrificed by decapitation. The ileum was removed and homogenized in buffer (50 mM trimethylaminoethanesulfonic acid (TES), 1 mM 1,10-phenanthroline pH 6.8). The homogenate was centrifuged (1000×g, 20 minutes) to remove tissue clumps and the supernatant was centrifuges (100,000×g, 60 minutes) to yield a pellet. The pellet was resuspended in buffer (50 mM TES, 1 mM 1,10-phenanthroline, 140 mg/l bacitracin, 1 mM dithiothreiol, 0.1% bovine serum albumin pH 6.8) and homogenized with a glass-teflon homogenizer to yield suspension which was referred to as crude membrane suspension. The obtained membrane suspension was stored at −80° C. until use.
(b) ^3H-Bradykinin binding to the membrane
The frozen crude membrane suspension was thawed. In binding assays, ^3H-Bradykinin (0.06 nM) and the test compound were incubated with 50 μl of the membrane suspension at room temperature for 60 minutes in a final volume of 250 μl. Separation of receptor-bound from free ^3H-Bradykinin is achieved by immediate filtration under vacuum and washed three times with 5 ml of ice-cold buffer (50 mM Tris-HCl pH 7.5). Non-specific binding was defined as binding in the presence of 0.1 μM Bradykinin. The radioactivity retained on rinsed filters was determined by a liquid-scintillation counter.

Row | melting point [°C] | IC50 (Bradykinin receptor) [nM] | Compound
1 |  | 2.6 | Cc1ccc2cccc(OCc3c(Cl)ccc(-n4cccc4CNC(=O)/C=C/c4ccc(/C=C/c5ccncc5)nc4)c3Cl)c2n1 [15 (trihydrochloride), 1-[2,4-Dichloro-3-(2-methylquinolin-8-yloxymethyl)phenyl]-2-[(E)-3-[6-[(E)-2-(pyridin-4-yl)vinyl]pyridin-3-yl]acryloylaminomethyl]pyrrole]
2 |  | 3.3 | CCOC(=O)c1ccc(/C=C/C(=O)NCc2cccn2-c2ccc(Cl)c(COc3cccc4ccc(C)nc34)c2Cl)cn1 [16-(1), 1-[2,4-Dichloro-3-(2-methylquinolin-8-yloxymethyl)phenyl]-2-[(E)-3-(6-ethoxycarbonylpyridin-3-yl)acryloylaminomethyl]pyrrole]
3 |  | 4.3 | Cc1nc2c(OCc3c(Cl)ccc(-n4cccc4CNC(=O)/C=C/c4ccc(/C=C/c5ccncc5)nc4)c3Cl)cccn2c1Br [23-(3) (trihydrochloride), 1-(3-(3-bromo-2-methylimidazo[1,2-a]pyridin-8-yloxymethyl)-2,4-dichlorophenyl]-2-[(E)-3-[6-[(E)-2-(pyridin-4-yl)vinyl]pyridin-3-yl]acryloylaminomethyl]pyrrole]
4 |  | 2.8 | CNC(=O)c1ccc(C=CC(=O)NCc2sccc2-c2ccc(C)c(COc3cccc4ccc(C)nc34)c2C)cc1 [45-(6) (hydrochloride), 3-[2,4-Dimethyl-3-(2-methylquinolin-8-yloxymethyl)-phenyl]-2-[4-(methylcarbamoyl)-cinnamoylaminomethyl]thiophene]

Second part, the compound before the results:

Row | Compound | melting point [°C] | IC50 (Bradykinin receptor) [nM]
5 | Cc1ccc2cccc(OCc3c(Cl)ccc(C(=O)N4CCNCC4)c3Cl)c2n1.Cl.Cl | 195 to 197 | 
6 | CNC(=O)c1ccc(C=CC(=O)NC/C=C\c2ccc(Cl)c(COc3cccc4ccc(C)nc34)c2Cl)cc1OC (as salt: hydrochloride) [50-(1) (hydrochloride), 8-[2,6-Dichloro-3-[(Z)-3-[3-methoxy-4-(methylcarbamoyl)cinnamoylamino]-1-propenyl]benzyloxy]-2-methylquinoline] | 222 to 225 | 
7 | CNC(=O)c1ccc(/C=C/C(=O)NCc2cccn2-c2ccc(Cl)c(COc3cccc4c(-n5ccnc5)cc(C)nc34)c2Cl)cc1 [33 (dihydrochloride)] |  | 3.2
8 | CNC(=O)c1ccc(/C=C/C(=O)NCc2ccccc2-c2ccc(C)c(COc3cccc4ccc(C)nc34)c2C)cc1 [40-(6)] |  | 2.3
9 | CNC(=O)c1ccc(C=CC(=O)NC/C=C\c2ccc(Cl)c(COc3cccc4ccc(C)nc34)c2Cl)cc1OC [50-(1) (hydrochloride), 8-[2,6-Dichloro-3-[(Z)-3-[3-methoxy-4-(methylcarbamoyl)cinnamoylamino]-1-propenyl]benzyloxy]-2-methylquinoline] |  | 7.4
10 | COc1nc2c(OCc3c(Cl)ccc(-n4cccc4CNC(=O)/C=C/c4ccc(NC(C)=O)nc4)c3Cl)cccc2n1C [Example 21, 2-[(E)-3-(6-acetamidopyridin-3-yl)acryloylaminomethyl]-1-[2,4-dichloro-3-(2-methoxy-1-methyl-1H-benzimidazol-4-yloxymethyl)phenyl]pyrrole] | 233 to 240 | 
